What was measured:
[1] = in vivo; cited from earlier work
[2] = system: MRSA; experiment: General ROS by DCFH-DA assay in bacteria; assay type: cell-based, methicillin-resistant Staphylococcus aureus
Description: 1.2.9.1 General ROS measured by […] (DCFH-DA) assay: DCF-DA was purchased from Thermofisher. […] The production of ROS by menadione when combined with blue light was measured in the presence and absence of bacteria. The bacteria (MRSA) was grown in BHI broth medium with shaking overnight. Cells were collected by centrifugation at 4,000 rpm for 5 minutes and resuspended in PBS in the stationary growth phase culture of 1×10^8 CFU/mL. The microbial suspension was transferred to a 35×12-mm dish, mixed with 10 μg/mL of menadione, and stained with 10 μM DCFH-DA solution per the manufacturer's instruction. The solutions (with and without bacteria) were irradiated with the blue light at 50 mW/cm^2 and the samples were collected every 15 minutes to be analyzed by Microplate Spectrofluorometer (SPECTRAmax®, Molecular Devices, USA) at λex=495 nm and λem=525 nm. The control and the menadione/dark groups were generated under the same conditions without irradiation.
We investigated the possibility that minocycline and doxycycline might be acting as a photosensitizer. To do so, the production of ROS by minocycline and doxycycline combined with blue light was measured by the ROS probe DCF in MRSA. From FIG. 28, it can be observed that each of minocycline and doxycycline when combined with blue light at 405 nm produced ROS.

[3] = system: MRSA; experiment: Singlet oxygen assay (SOSG) in bacteria; assay type: cell-based, methicillin-resistant Staphylococcus aureus; conditions: 10 μg/mL menadione, 200 J/cm^2
Description: 1.2.9.2 Singlet oxygen ^1O2 assay: The singlet oxygen was measured by Singlet Oxygen Sensor Green Reagent (SOSG) (Thermofisher). In the presence of singlet oxygen, SOSG emits a green fluorescence similar to that of fluorescein (excitation/emission maxima ˜504/525 nm). The MRSA were grown in BHI broth medium with shaking overnight. Cells were collected by centrifugation at 4,000 rpm for 5 minutes and resuspended in PBS in the stationary growth phase culture of 1×10^8 CFU/mL. The microbial suspension was transferred to a 35×12-mm dish, mixed with 10 μg/mL of menadione, and stained with 10 μM SOSG solution per the manufacturer's instruction. The bacteria were irradiated with the blue light at 50 mW/cm^2 and the samples were collected each 15 minutes to be analyzed by Microplate Spectrofluorometer (SPECTRAmax®, Molecular Devices, USA) at λex=504 nm and λem=525 nm. The control and the menadione/dark groups were generated under the same conditions without irradiation.

[4] = system: MRSA; experiment: Hydroxyl radical assay (HPF) in bacteria; assay type: cell-based, methicillin-resistant Staphylococcus aureus; conditions: 10 μg/mL menadione, 135 J/cm^2
Description: 1.2.9.3 Hydroxyl radical HO′ assay: The hydroxyl radical was measured by 3′-(p-hydroxyphenyl) fluorescein (HPF) (Thermofisher). HPF is a new fluorescein derivative, and it is nonfluorescent until reacted with the hydroxyl radical or peroxynitrite anion. The MRSA were grown in BHI broth medium with shaking overnight. Cells were collected by centrifugation at 4,000 rpm for 5 minutes and resuspended in PBS in the stationary growth phase culture of 1×10^8 CFU/mL. The microbial suspension was transferred to a 35×12-mm dish, mixed with 10 μg/mL of menadione, and stained with 10 μM HPF solution per the manufacturer's instruction. The bacteria were irradiated with the blue light at 50 mW/cm^2 and the samples were collected each 15 minutes to be analyzed by Microplate Spectrofluorometer (SPECTRAmax®, Molecular Devices, USA) at λex=490 nm and λem=515 nm. The control and the menadione/dark groups were generated under the same conditions without irradiation.

[5] = system: P. aeruginosa biofilm; experiment: Photoinactivation of 48-hour in vitro biofilms by adjuvant/antibiotic + antimicrobial blue light; assay type: cell-based, Pseudomonas aeruginosa
Description: The bacterial suspension was grown in a shaking incubator overnight in BHI broth. Cells were collected by centrifugation at 4,000 rpm for 5 minutes and suspended in PBS at a density of 10^6 CFU/mL. Then, the biofilms were grown for 48 hours (unless otherwise specified) in 96-well microtiter plates as described previously [Ref. 27], with a renewal of the media every 24 hours. Following the 48-hour biofilm growth, fresh 200 μL of PBS with or without menadione in different concentrations were added to the wells and the biofilms were incubated in the dark at 25° C. for 1 hour: 0, 0.5, 1, and 2 μg/mL for MRSA USA300, AF0001, IQ0064; […]; and 0, 100, and 150 μg/mL for E. coli ATCC 25922. After that, the control and the menadione-treated biofilms were maintained without irradiation (“menadione/dark”). Simultaneously, the aBL was delivered to the other biofilm groups testing different power densities (50, 30, 15, and 10 mW/cm^2) while keeping the same radiant exposure of 250 J/cm^2. After the light exposure, the biofilms were carefully washed two times with PBS and 200 μL of PBS was added to each well. Then, the bacterial biofilms in each well were harvested by scratching with a sterile pipette tip and three wells of each group were pooled together in a 1.5 mL microcentrifuge tube. The total volume obtained, 600 μL (3 wells), was sonicated using a Branson 2510 Water Bath Sonicator (Marshall Scientific, LLC) for 5 minutes and the CFU was determined by 10-fold serial dilutions in PBS on BHI agar plates. CFU was counted after overnight incubation at 37° C. Experiments were performed in triplicate.
A bacterial suspension was grown in a shaking incubator overnight in BHI broth. Cells were collected by centrifugation at 4,000 rpm for 5 minutes and suspended in PBS at a density of 10^6 CFU/mL. Then, the biofilms were grown for 48 hours in 96-well microtiter plates with a renewal of the media every 24 hours. Following the 48-hour biofilm growth, fresh 200 μL of PBS with the tetracyclines minocycline, doxycycline, and demeclocycline in different concentrations were added to the wells and the biofilms were incubated in the dark at 25° C. for 1 hour: 0, 0.25, 0.5, and 1 μg/mL for minocycline; 0, 0.5, 1, and 2 μg/mL for doxycycline; and 0, 0.5, 1, and 2 for demeclocycline. After that, the control and the tetracycline-treated biofilms were maintained without irradiation (“menadione/dark”). […] The total volume obtained, 600 μL (3 wells), was sonicated using a Branson 2510 Water Bath Sonicator (Marshall Scientific, LLC) for 5 minutes and the CFU/mL was determined by 10-fold serial dilutions in PBS on BHI agar plates. CFU was counted after overnight incubation at 37° C.

CC1=CC(=O)c2ccccc2C1=O [menadione, 2-methyl-1,4-naphthoquinone]
adverse effect at high doses [1]: hepatitis | production of ROS measured by DCF, menadione+aBL vs aBL alone ([2]; MRSA, 10 μg/mL menadione, 180 J/cm^2): two times higher | ROS generation in bacteria by menadione in the dark ([2]; absolute dark): does not appear to generate significant ROS | increase of total ROS, menadione combined with aBL ([2]; bacteria, menadione + aBL): 2.5 fold | singlet oxygen (SOSG), menadione+aBL vs aBL alone [3]: 1.5 times | hydroxyl radical (HPF), menadione+aBL vs aBL alone [4]: 1.77 times | biofilm reduction by menadione without irradiation ([5]; 48 h biofilm, dark): < 1 log killing | biofilm eradicated by menadione plus aBL ([5]; 48 h biofilm, 100 μg/mL menadione + aBL 250 J/cm^2 (50 mW/cm^2)): 6.6 log10 CFU/mL | potentiation of the effect of aBL by menadione ([5]; 48 h in vitro biofilm, vs aBL alone): ~100 fold

From patent publication US20240416143A1, “PHOTONIC ANTIMICROBIAL WOUND SURFACE DRESSING” (The General Hospital Corporation, priority 2021, published 2024)
